Like-named read-outs stand apart in the source and are kept apart here.
Columns and labels:
[1] = biological target: human CB1 receptor (hCB1) (Homo sapiens, UniProt P21554); experiment: cell-based; assay type: cell-based
Protocol: (§1) The ability of compounds to act as agonists or inverse agonists at human CB2 and CB1 receptors (hCB2, hCB1, respectively) and at the rat CB2 receptor (rCB2) was determined by measuring changes in intracellular cAMP levels. Chinese Hamster Ovary (CHO-K1) cell lines stably expressing hCB2 (Genebank: X74328) or hCB1 (Genebank: X54937) were purchased from Euroscreen (Gosselies, Belgium). The rat CB2 receptor was expressed from genomic DNA (provided by M. Abood, California Pacific Medical Center) in CHO-K1 cells from expression plasmid vector, pcDNA3.1.
(§2) Cell lines were grown in suspension in EX-CELL 302 CHO Serum-free medium (Sigma, cat #14324C) supplemented with 1% Fetal Bovine Serum, glutamine and non-essential amino-acids under 0.4 mg/mL G418 selection.
(§3) Receptor mediated responses were determined by measuring changes in intracellular cAMP using LANCE cAMP detection kit (cat #AD0264, Perkin Elmer, Wellesley, Mass.) based on time-resolved fluorescence resonance energy transfer (TR-FRET). Changes in cAMP were determined in cells pre-incubated with IBMX (isobutyl methylxanthine) and prestimulated with NKH-477 (a water soluble forskolin derivative, cat #1603, Tocris, Ellisville, Mo.) to increase basal cAMP levels as detailed below.
(§4) On the day of the experiment, cells were spun at low speed for 5 min at room temperature. The supernatant was removed and cells were resuspended in stimulation buffer (Hanks Buffered Salt Solution/5 mM HEPES, containing 0.5 mM IBMX (cat #17018, Sigma) and 0.02% BSA (Perkin-Elmer, cat #CR84-100)). Cell clumps were removed by filtering through cell strainer 40 μm (BD Falcon, Discovery Labware, Bedford, Mass.) and diluted to 2×10^5 cells/mL. Antibody supplied with the LANCE cAMP immunoassay kit was then added according to the manufacturer's instructions. An aliquot of cells was taken for un-induced controls. To the remaining cells was added NKH-477 (a water soluble forskolin derivative, Tocris cat #1603) to a final concentration of 2-8 μM. Cells were then incubated for 30 min at room temperature prior to adding to Proxiplates containing test compounds (final DMSO concentration was less than 0.5%) with a Multidrop bulk dispenser, followed by a sixty minute incubation at room temperature. The response was stopped by addition of the detection mix supplied with the LANCE kit. The reagents were allowed to equilibrate for three hours prior to reading on an Envision multi-mode detector (Perkin-Elmer). TR-FRET was measured using a 330-380 nm excitation filter, a 665 nm emission filter, dichroic mirror 380 nm and Z=1 mm. Cyclic AMP concentrations in each well were back-calculated from a cAMP standard curve run concurrently during each assay. Each plate contained 16 wells of forskolin stimulated cells and 16 wells of forskolin plus CP55,940-treated cells. Cells were treated with 1 μM CP55,940 (Tocris cat. #0949). Concentrations of cAMP were expressed as a percent of the difference of these two groups of wells. Concentration-response data including EC50 (the concentration of compound producing 50% of the maximal response) and intrinsic activity (the percent maximal activation compared to full activation by CP55,940) were determined using a four-parameter non-linear regression algorithm (Xlfit equation 251, IDBS).

rat CB2 receptor (rCB2) = biological target: T1, rat CB2 receptor (rCB2) (Rattus norvegicus, UniProt Q9QZN9); experiment: cell-based; assay type: cell-based; conditions: for +/− RCB2: agonist or inverse agonist at rCB2
T1 sequence (Q9QZN9 1-360): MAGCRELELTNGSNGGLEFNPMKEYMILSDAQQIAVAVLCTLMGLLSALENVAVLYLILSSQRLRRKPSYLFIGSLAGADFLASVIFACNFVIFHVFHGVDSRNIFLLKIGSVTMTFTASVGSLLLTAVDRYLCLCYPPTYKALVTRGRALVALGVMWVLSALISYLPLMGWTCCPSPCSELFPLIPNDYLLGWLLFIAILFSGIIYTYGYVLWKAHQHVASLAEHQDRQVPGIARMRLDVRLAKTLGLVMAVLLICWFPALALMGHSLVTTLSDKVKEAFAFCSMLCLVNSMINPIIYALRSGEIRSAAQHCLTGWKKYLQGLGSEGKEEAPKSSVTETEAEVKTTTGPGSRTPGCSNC
Protocol: as §1, §2, §3, §4

[2] = groups >100 nM-10 μM and >10 μM, cAMP, CHO-K1 hCB1, read-out: EC50 HCB1
[3] = groups >100 nM-10 μM and >10 μM, cAMP, CHO-K1 rCB2, read-out: EC50 RCB2

Sequence of human CB1 receptor (hCB1) (P21554 whole entry): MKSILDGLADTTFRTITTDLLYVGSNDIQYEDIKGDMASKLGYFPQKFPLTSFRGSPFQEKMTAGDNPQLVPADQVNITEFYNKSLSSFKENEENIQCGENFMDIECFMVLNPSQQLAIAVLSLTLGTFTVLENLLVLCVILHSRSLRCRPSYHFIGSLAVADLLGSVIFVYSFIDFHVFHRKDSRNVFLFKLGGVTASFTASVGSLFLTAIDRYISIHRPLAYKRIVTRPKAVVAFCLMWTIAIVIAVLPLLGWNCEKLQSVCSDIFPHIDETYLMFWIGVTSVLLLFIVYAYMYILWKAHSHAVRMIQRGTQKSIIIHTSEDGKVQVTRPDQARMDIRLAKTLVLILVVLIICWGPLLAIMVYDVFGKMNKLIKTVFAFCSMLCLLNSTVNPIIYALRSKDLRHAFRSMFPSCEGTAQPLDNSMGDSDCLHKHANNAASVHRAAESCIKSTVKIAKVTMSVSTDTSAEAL

| Compound | EC50 [1] [nM] | EC50 (rat CB2 receptor (rCB2)) [nM] | +/− RCB2 (rat CB2 receptor (rCB2)) | EC50 [1, 2] [nM] | EC50 (rat CB2 receptor (rCB2); [3]) [nM] |
| --- | --- | --- | --- | --- | --- |
| CNC(=O)[C@@H](NC(=O)c1nc(-c2ccc(F)cc2)n2c1CNCC2)C(C)(C)C [Compound 6, (S)-N-(3,3-dimethyl-1-(methylamino)-1-oxobutan-2-yl)-3-(4-fluorophenyl)-5,6,7,8-tetrahydroimidazo[1,5-a]pyrazine-1-carboxamide] | > 10000 | > 10000 |  |  |  |
| CNC(=O)[C@@H](NC(=O)c1nc(-c2ccc(F)c(C)c2)n2c1CNCC2)C(C)(C)C [Compound 7, (S)-N-(3,3-dimethyl-1-(methylamino)-1-oxobutan-2-yl)-3-(4-fluoro-3-methylphenyl)-5,6,7,8-tetrahydroimidazo[1,5-a]pyrazine-1-carboxamide] | > 10000 |  | − |  |  |
| CNC(=O)[C@@H](NC(=O)c1nc(-c2cccc(C)c2)n2c1CNCC2)C(C)(C)C [Compound 8, (S)-N-(3,3-dimethyl-1-(methylamino)-1-oxobutan-2-yl)-3-m-tolyl-5,6,7,8-tetrahydroimidazo[1,5-a]pyrazine-1-carboxamide] | > 10000 |  | − |  |  |
| CNC(=O)[C@@H](NC(=O)c1nc(-c2ccc(Cl)cc2)n2c1CNCC2)C(C)(C)C [Compound 9, (S)-3-(4-chlorophenyl)-N-(3,3-dimethyl-1-(methylamino)-1-oxobutan-2-yl)-5,6,7,8-tetrahydroimidazo[1,5-a]pyrazine-1-carboxamide] | > 10000 |  | − |  |  |
| CNC(=O)[C@@H](NC(=O)c1nc(-c2ccccc2Cl)n2c1CNCC2)C(C)(C)C [Compound 10, (S)-3-(2-chlorophenyl)-N-(3,3-dimethyl-1-(methylamino)-1-oxobutan-2-yl)-5,6,7,8-tetrahydroimidazo[1,5-a]pyrazine-1-carboxamide] | > 10000 |  | + |  |  |
| CNC(=O)[C@@H](NC(=O)c1nc(-c2ccsc2)n2c1CNCC2)C(C)(C)C [Compound 11, (S)-N-(3,3-dimethyl-1-(methylamino)-1-oxobutan-2-yl)-3-(thiophen-3-yl)-5,6,7,8-tetrahydroimidazo[1,5-a]pyrazine-1-carboxamide] | > 10000 |  | + |  |  |
| CNC(=O)[C@@H](NC(=O)c1nc(-c2ccoc2)n2c1CNCC2)C(C)(C)C [Compound 12, (S)-N-(3,3-dimethyl-1-(methylamino)-1-oxobutan-2-yl)-3-(furan-3-yl)-5,6,7,8-tetrahydroimidazo[1,5-a]pyrazine-1-carboxamide] | > 10000 |  | − |  |  |
| CNC(=O)[C@@H](NC(=O)c1nc(Cc2ccccc2)n2c1CNCC2)C(C)(C)C [Compound 13, (S)-3-benzyl-N-(3,3-dimethyl-1-(methylamino)-1-oxobutan-2-yl)-5,6,7,8-tetrahydroimidazo[1,5-a]pyrazine-1-carboxamide] | > 10000 | > 10000 |  |  |  |
| CNC(=O)[C@@H](NC(=O)c1nc(-c2cccnc2)n2c1CNCC2)C(C)(C)C [Compound 14, (S)-N-(3,3-dimethyl-1-(methylamino)-1-oxobutan-2-yl)-3-(pyridin-3-yl)-5,6,7,8-tetrahydroimidazo[1,5-a]pyrazine-1-carboxamide] | > 10000 |  | + |  |  |
| CNC(=O)[C@@H](NC(=O)c1nc(-c2ccco2)n2c1CNCC2)C(C)(C)C [Compound 15, (S)-N-(3,3-dimethyl-1-(methylamino)-1-oxobutan-2-yl)-3-(furan-2-yl)-5,6,7,8-tetrahydroimidazo[1,5-a]pyrazine-1-carboxamide] | > 10000 |  | + |  |  |
| CNC(=O)[C@@H](NC(=O)c1nc(-c2cccs2)n2c1CNCC2)C(C)(C)C [Compound 16, (S)-N-(3,3-dimethyl-1-(methylamino)-1-oxobutan-2-yl)-3-(thiophen-2-yl)-5,6,7,8-tetrahydroimidazo[1,5-a]pyrazine-1-carboxamide] | > 10000 |  | + |  |  |
| CNC(=O)[C@@H](NC(=O)c1nc(-c2cnn(C)c2)n2c1CNCC2)C(C)(C)C [Compound 17, (S)-N-(3,3-dimethyl-1-(methylamino)-1-oxobutan-2-yl)-3-(1-methyl-1H-pyrazol-4-yl)-5,6,7,8-tetrahydroimidazo[1,5-a]pyrazine-1-carboxamide] |  |  |  | > 10000 | > 10000 |
| CNC(=O)[C@@H](NC(=O)c1nc(-c2cccc(Cl)c2)n2c1CNCC2)C(C)(C)C [Compound 18, (S)-3-(3-chlorophenyl)-N-(3,3-dimethyl-1-(methylamino)-1-oxobutan-2-yl)-5,6,7,8-tetrahydroimidazo[1,5-a]pyrazine-1-carboxamide] | > 10000 |  | − |  |  |
| CNC(=O)[C@@H](NC(=O)c1nc(-c2cncnc2)n2c1CNCC2)C(C)(C)C [Compound 19, (S)-N-(3,3-dimethyl-1-(methylamino)-1-oxobutan-2-yl)-3-(pyrimidin-5-yl)-5,6,7,8-tetrahydroimidazo[1,5-a]pyrazine-1-carboxamide] | > 10000 | > 10000 |  |  |  |
| CNC(=O)[C@@H](NC(=O)c1nc(-c2cscc2C)n2c1CNCC2)C(C)(C)C [Compound 21, (S)-N-(3,3-dimethyl-1-(methylamino)-1-oxobutan-2-yl)-3-(4-methylthiophen-3-yl)-5,6,7,8-tetrahydroimidazo[1,5-a]pyrazine-1-carboxamide] | > 10000 |  | + |  |  |
| CC(C)(C)[C@@H](CO)NC(=O)c1nc(-c2ccccc2)n2c1CNCC2 [Compound 22, (S)-N-(1-hydroxy-3,3-dimethylbutan-2-yl)-3-phenyl-5,6,7,8-tetrahydroimidazo[1,5-a]pyrazine-1-carboxamide] | > 10000 |  | − |  |  |
| CC(C)(C)[C@H](CO)NC(=O)c1nc(-c2ccccc2)n2c1CNCC2 [Compound 23, (R)-N-(1-hydroxy-3,3-dimethylbutan-2-yl)-3-phenyl-5,6,7,8-tetrahydroimidazo[1,5-a]pyrazine-1-carboxamide] | > 10000 |  | + |  |  |
| CC(C)(C)CNC(=O)c1nc(-c2ccccc2)n2c1CNCC2 [Compound 24, N-neopentyl-3-phenyl-5,6,7,8-tetrahydroimidazo[1,5-a]pyrazine-1-carboxamide] |  |  |  | > 10000 | > 10000 |
| O=C(c1nc(-c2ccccc2)n2c1CNCC2)N1CCOCC1 [Compound 25, morpholino(3-phenyl-5,6,7,8-tetrahydroimidazo[1,5-a]pyrazin-1-yl)methanone] |  |  |  | > 10000 | > 10000 |
| C[C@@H](NC(=O)c1nc(-c2ccccc2)n2c1CNCC2)C(C)(C)C [Compound 26, (R)-N-(3,3-dimethylbutan-2-yl)-3-phenyl-5,6,7,8-tetrahydroimidazo[1,5-a]pyrazine-1-carboxamide] | > 10000 | > 10000 |  |  |  |
| C[C@H](NC(=O)c1nc(-c2ccccc2)n2c1CNCC2)C(C)(C)C [Compound 27, (s)-N-(3,3-dimethylbutan-2-yl)-3-phenyl-5,6,7,8-tetrahydroimidazo[1,5-a]pyrazine-1-carboxamide] | > 10000 | > 10000 |  |  |  |
| CNC(=O)[C@H](C)NC(=O)c1nc(-c2ccccc2)n2c1CNCC2 [Compound 28, (S)-N-(1-(methylamino)-1-oxopropan-2-yl)-3-phenyl-5,6,7,8-tetrahydroimidazo[1,5-a]pyrazine-1-carboxamide] |  |  |  | > 10000 | > 10000 |
